Measured values taken from PubChem BioAssay (NCI).
Values joined by “and” are separate entries in the source; they are usually repeats but may differ in a detail not shown here. Equal values may be shown once.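 Briefly, cells in 96-well plates were exposed to five compound concentrations for 48 h, and endpoints were estimated by linear interpolation. Abbreviation: GI50, concentration required for 50% inhibition of growth. TGI is the concentration that stops growth completely.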

Legend:
Assay in all cases: DTP human tumour cell line panel, 48 h
[1] = tested on: CCRF-CEM leukemia
[2] = tested on: SK-MEL-28 melanoma
[3] = tested on: CAKI-1 renal
[4] = tested on: SN12C renal
[5] = tested on: LOX IMVI melanoma
[6] = tested on: SF-539 CNS
[7] = tested on: HCT-15 colon
[8] = tested on: K-562 leukemia
[9] = tested on: MCF7 breast
[10] = tested on: SNB-19 CNS

Compound	TGI [1] [µM]	TGI [2]	TGI [3] [µM]	TGI [4]	TGI [5]	TGI [6]	TGI [7]	TGI [8] [µM]	TGI [9] [µM]	TGI [10]	GI50 [1] [µM]	GI50 [2]	GI50 [3] [µM]	GI50 [4] [µM]	GI50 [5] [µM]	GI50 [6] [µM]	GI50 [7]	GI50 [8]	GI50 [9] [µM]	GI50 [10] [µM]
CCN(CC)C1Oc2cc3c(cc2C(c2cc(OC)c(OC)c(OC)c2)C1C)OCO3 (centres undefined)	> 22.9	34.3 µM	> 44.2	> 53.8 µM	> 48.8 µM	1.43 µM	13.3 µM	11.1	> 50	> 53 µM										
COc1cccc(NC(=O)CC(=O)N2N=C(C)C(N=Nc3ccc(C(=O)O)cc3)C2=O)c1 (centres undefined)	> 100	> 100 µM	> 100	> 100 µM	> 100 µM	> 100 µM	> 100 µM	> 100	> 100	> 100 µM										
O=[N+]([O-])c1cc(F)ccc1Sc1ccccc1	> 10	> 10 µM	> 10	> 10 µM	> 10 µM	> 10 µM	> 10 µM	> 10	> 10	> 10 µM										
CC(=O)O[C@H]1CCC2[C@@H]3CCC4NC(=O)C(C#N)C[C@]4(C)C3CC[C@@]21C (some centres undefined)	> 10	> 10 µM	> 10	> 10 µM	> 10 µM	> 10 µM	> 10 µM	> 10	> 10	> 10 µM										
COC1(OC)C=CC(=O)C=C1	22.4	4.16 µM	11.6	30.8 µM	2.91 µM	11.8 µM	16.9 µM	> 100	8.42	30.2 µM										
COC(=O)c1cc(C)ccc1/C=C1\Cc2c(C)cc(C)cc2C1=O	> 100	> 100 µM	> 89.1	> 100 µM	> 100 µM	42.3 µM	> 100 µM	> 100	> 100	52.8 µM										
Clc1nc2c(C#Cc3ccccc3)ncnc2n1C1CCCCO1 (centres undefined)	> 100	91.3 µM	28.1	23 µM	30.7 µM	42.2 µM	31 µM	> 100	20.9	37.3 µM										
CC1CN=C(c2ccc(-c3nc(-c4ccc(C5=NCC(C)N5)cc4)nc(N(C)C)n3)cc2)N1 (centres undefined)	3.59	8.12 µM	32	3.87 µM	2.93 µM	2.2 µM	33.9 µM	6	4.71	6.73 µM										
COc1cc(S(=O)(=O)Nc2ccc(-c3csc(/N=C\c4ccccc4)n3)cc2)ccc1Cl	> 100	> 100 µM	> 100	> 100 µM	> 100 µM	> 100 µM	> 100 µM	> 100	49.9	> 100 µM										
COC(=O)C1CC23C=CCN4CC(C2C)C2(c5ccccc5NC12)C43 (centres undefined)	> 100	> 100 µM	> 100	> 100 µM	> 100 µM	> 100 µM	> 100 µM	> 100	> 100	> 100 µM										
CC1=NN2C(=N)/C(=C/c3ccccc3)C(=O)N=C2S1	> 100	> 100 µM	> 100	> 100 µM	> 100 µM	> 100 µM	> 100 µM	> 100	> 33.6	> 100 µM										
COc1cc2c(cc1O)CCN(C)[C@H]2Cc1ccc(Oc2c(O)c(OC)cc3c2C[C@H]2c4c(c(OC)c(OC)c(OC)c4-3)CCN2C)cc1	9.28	11.7 µM	10.9	10.7 µM	6.55 µM	11.5 µM	10.1 µM	3.33	10.7	12.5 µM										
CCC1(OC(=O)CN)C(=O)OCc2c1cc1n(c2=O)Cc2cc3cc4c(cc3nc2-1)OCO4 (centres undefined)		13.3 µM and 11.8 µM	0.171	21.8 µM and > 100 µM	0.155 µM and 0.106 µM	0.0161 µM and 0.0165 µM	26.8 µM and 10.2 µM	> 100	> 100	27.3 µM and 3.14 µM	< 0.01	0.195 µM and 0.294 µM	< 0.01	< 0.01	< 0.01	< 0.01	0.126 µM and 0.0483 µM	0.0512 µM and 0.0225 µM	< 0.01	< 0.01
Cc1cc2nc(-c3c(N)ncc(C#N)c3-c3ccc(Cl)cc3)[nH]c2cc1C	> 100	40.2 µM	> 100	> 100 µM	26 µM	5.78 µM	> 100 µM	> 100	> 100	75.6 µM	24.6	5.8 µM	12.1	31	5.83	2.07	30.6 µM	31.5 µM	9.34	19.5
COc1cc2oc(-c3ccc4c(c3)OCO4)c(OC)c(=O)c2c(O)c1OC	> 50	> 50 µM	> 50	> 50 µM	> 50 µM	> 50 µM	> 50 µM	> 50	> 50	> 50 µM										
C=CCOC1(CC=C)C(=O)OC2C(O)COC21O (centres undefined)	> 100	> 100 µM	> 100	> 100 µM	> 100 µM	> 100 µM	> 100 µM	> 100	> 100	> 100 µM										
